Paper PMC7044277 (Nature Communications, 2020)
“And” between values parts separate entries of the source, which are not always exact repeats. Equal values may be shown once.

Experiments:
Format in all cases: cell-based
320 non-olfactory GPCRs [1] = biological target: 320 non-olfactory GPCRs (Homo sapiens, UniProt Q15743); conditions: receptor GPR68 no V2 Tail; replicate values, Fig_4g
320 non-olfactory GPCRs [2] = biological target: T1, 320 non-olfactory GPCRs (Homo sapiens, UniProt Q9NS75)
T1 construct: expressed in transfected cells; host or cells: HTLA cells
T1 sequence (Q9NS75 whole entry): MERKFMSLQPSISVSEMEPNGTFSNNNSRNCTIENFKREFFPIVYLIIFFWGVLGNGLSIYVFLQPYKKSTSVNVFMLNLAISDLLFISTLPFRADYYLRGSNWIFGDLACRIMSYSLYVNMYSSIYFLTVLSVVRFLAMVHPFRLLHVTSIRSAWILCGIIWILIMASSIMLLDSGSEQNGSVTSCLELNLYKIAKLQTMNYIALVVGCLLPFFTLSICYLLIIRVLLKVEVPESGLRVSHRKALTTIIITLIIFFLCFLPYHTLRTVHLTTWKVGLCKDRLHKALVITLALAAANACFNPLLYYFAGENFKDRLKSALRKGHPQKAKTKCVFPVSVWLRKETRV

320 non-olfactory GPCRs [3] = biological target: 320 non-olfactory GPCRs (Homo sapiens, UniProt P21462)
320 non-olfactory GPCRs (Homo sapiens, UniProt P21462), sequence (P21462 whole entry): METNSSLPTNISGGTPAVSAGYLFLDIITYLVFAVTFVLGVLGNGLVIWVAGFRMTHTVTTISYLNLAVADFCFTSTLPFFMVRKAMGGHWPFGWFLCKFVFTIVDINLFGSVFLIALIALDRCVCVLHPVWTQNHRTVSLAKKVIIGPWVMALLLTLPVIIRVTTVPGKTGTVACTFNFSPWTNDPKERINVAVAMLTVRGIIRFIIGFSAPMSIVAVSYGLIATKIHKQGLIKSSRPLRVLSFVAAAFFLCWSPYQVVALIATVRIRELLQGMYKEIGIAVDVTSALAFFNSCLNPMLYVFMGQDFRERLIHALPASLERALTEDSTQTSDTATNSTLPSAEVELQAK

320 non-olfactory GPCRs [4] = biological target: T2, 320 non-olfactory GPCRs (Homo sapiens, UniProt Q9Y5X5); conditions: receptor NPFF2; replicate values, Fig_4g
T2 construct: expressed in transfected cells; host or cells: HTLA cells
T2 sequence (Q9Y5X5 whole entry): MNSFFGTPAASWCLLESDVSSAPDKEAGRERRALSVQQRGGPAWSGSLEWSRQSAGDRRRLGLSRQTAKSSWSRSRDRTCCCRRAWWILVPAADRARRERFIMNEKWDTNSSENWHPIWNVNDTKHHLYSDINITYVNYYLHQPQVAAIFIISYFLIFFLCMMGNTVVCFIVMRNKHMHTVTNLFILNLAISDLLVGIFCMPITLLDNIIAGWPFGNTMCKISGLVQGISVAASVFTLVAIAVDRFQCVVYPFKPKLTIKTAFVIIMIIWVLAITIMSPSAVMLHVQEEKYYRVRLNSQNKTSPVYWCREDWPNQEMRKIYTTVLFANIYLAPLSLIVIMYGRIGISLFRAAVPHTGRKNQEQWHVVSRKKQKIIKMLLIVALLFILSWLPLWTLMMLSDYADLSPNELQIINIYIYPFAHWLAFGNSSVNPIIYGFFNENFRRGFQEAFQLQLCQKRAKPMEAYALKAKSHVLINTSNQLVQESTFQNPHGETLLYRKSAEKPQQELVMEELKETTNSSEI
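Throughout, for Fold of Basal: compound tested at 1 µM final concentration.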
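Throughout, for GPCRome agonism screen response: fold over basal response of each receptor without drug.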

320 non-olfactory GPCRs (Homo sapiens, UniProt Q15743), sequence (Q15743 whole entry): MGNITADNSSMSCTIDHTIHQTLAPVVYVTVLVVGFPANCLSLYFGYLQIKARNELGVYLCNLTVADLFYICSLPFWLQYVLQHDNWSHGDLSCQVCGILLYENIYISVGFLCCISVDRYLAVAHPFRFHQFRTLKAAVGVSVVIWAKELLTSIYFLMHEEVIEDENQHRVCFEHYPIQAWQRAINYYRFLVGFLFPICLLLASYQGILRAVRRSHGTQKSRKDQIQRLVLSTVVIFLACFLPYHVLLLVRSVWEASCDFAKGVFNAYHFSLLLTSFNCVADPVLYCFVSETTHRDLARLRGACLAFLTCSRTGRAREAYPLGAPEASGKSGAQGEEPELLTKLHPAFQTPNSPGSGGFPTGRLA

CCOc1cccc2cc(C(C)NCC3(O)CCCCC3)oc12 (stereo not shown) [O4LE6]
GPCRome agonism screen response (320 non-olfactory GPCRs [1]): 1.945 and 0.5249 and 1.001 and 1.345
Fold of Basal (320 non-olfactory GPCRs [2]): 2.056 and 1.771 and 2.16 and 1.536
Fold of Basal (320 non-olfactory GPCRs [3]): 0.6589 and 0.3791 and 0.4925 and 0.3481
GPCRome agonism screen response (320 non-olfactory GPCRs [4]): 1.684 and 1.1 and 0.9323 and 0.6942
